Laboratory results as given in patent publication US11083725B2 (priority 2014, dated 2021).

Test system: NHBE cells
Experiment: Biolog metabolic array: substrate use by NHBE cells with or without CA09 infection
Format: cell-based, human
Details: for Substrate use, 590 nm absorbance normalized to zero hour, 0 hr: Biolog PMM2, 0 hr; for Substrate use, 590 nm absorbance normalized to zero hour, 1 hr: Biolog PMM2, 1 hr; for Substrate use, 590 nm absorbance normalized to zero hour, 5 hr: Biolog PMM2, 5 hr; for Substrate use, 590 nm absorbance normalized to zero hour, 7 hr: Biolog PMM2, 7 hr
[1] = Control (uninfected) NHBE cells
[2] = Virus (CA09-infected, MOI 1) NHBE cells
[3] = Virus: CA09-infected NHBE cells, MOI 1, Biolog PMM2
[4] = Virus (CA09, MOI 1) infected NHBE cells

Compound	590 nm absorbance normalized to zero hour (substrate use), 1 hr [1]	590 nm absorbance normalized to zero hour (substrate use), 2 hr [1]	590 nm absorbance normalized to zero hour (substrate use), 3 hr [1]	590 nm absorbance normalized to zero hour (substrate use), 4 hr [1]	590 nm absorbance normalized to zero hour (substrate use), 6 hr [1]	590 nm absorbance normalized to zero hour (substrate use), 8 hr [1]	590 nm absorbance normalized to zero hour (substrate use), 9 hr [1]	590 nm absorbance normalized to zero hour (substrate use), 10 hr [1]	590 nm absorbance normalized to zero hour (substrate use), 11 hr [1]	Substrate use, 590 nm absorbance normalized to zero hour, 1 hr [1]	Substrate use, 590 nm absorbance normalized to zero hour, 5 hr [1]	Substrate use, 590 nm absorbance normalized to zero hour, 7 hr [1]	590 nm absorbance normalized to zero hour (substrate use), 1 hr [2]	590 nm absorbance normalized to zero hour (substrate use), 2 hr [2]	590 nm absorbance normalized to zero hour (substrate use), 3 hr [2]	590 nm absorbance normalized to zero hour (substrate use), 4 hr [2]	590 nm absorbance normalized to zero hour (substrate use), 6 hr [2]	590 nm absorbance normalized to zero hour (substrate use), 8 hr [2]	590 nm absorbance normalized to zero hour (substrate use), 9 hr [2]	590 nm absorbance normalized to zero hour (substrate use), 10 hr [2]	other results
OCC1OC(OC2C(CO)OC(OC3C(CO)OC(O)C(O)C3O)C(O)C2O)C(O)C(O)C1O (stereo not shown) [Malto-triose]	2.27	3.36	4.16	4.58	5.62	7.97	7.32	6.88	8.46	2.27	6.09	7.39	2.01	3.05	3.70	4.08	5.81	6.78	7.44	6.04	590 nm absorbance normalized to zero hour (substrate use), 0 hr [1]: 1.00; Substrate use, 590 nm absorbance normalized to zero hour, 0 hr [1]: 1.00; 590 nm absorbance normalized to zero hour (substrate use), 0 hr [2]: 1.00; 590 nm absorbance normalized to zero hour (substrate use), 5 hr [2]: 5.20; 590 nm absorbance normalized to zero hour (substrate use), 7 hr [2]: 6.29; 590 nm absorbance normalized to zero hour (substrate use), 11 hr [2]: 6.50; 590 nm absorbance normalized to zero hour (substrate use), 0 hr [3]: 1.00; 590 nm absorbance normalized to zero hour (substrate use), 1 hr [3]: 2.01; 590 nm absorbance normalized to zero hour (substrate use), 2 hr [3]: 3.05; 590 nm absorbance normalized to zero hour (substrate use), 3 hr [3]: 3.70; 590 nm absorbance normalized to zero hour (substrate use), 4 hr [3]: 4.08; 590 nm absorbance normalized to zero hour (substrate use), 5 hr [3]: 5.20; 590 nm absorbance normalized to zero hour (substrate use), 6 hr [3]: 5.81; 590 nm absorbance normalized to zero hour (substrate use), 7 hr [3]: 6.29; 590 nm absorbance normalized to zero hour (substrate use), 8 hr [3]: 6.78; 590 nm absorbance normalized to zero hour (substrate use), 9 hr [3]: 7.44; 590 nm absorbance normalized to zero hour (substrate use), 10 hr [3]: 6.04; 590 nm absorbance normalized to zero hour (substrate use), 11 hr [3]: 6.50
OC[C@H]1O[C@H](O[C@H]2[C@H](O)[C@@H](O)[C@H](O)O[C@@H]2CO)[C@H](O)[C@@H](O)[C@@H]1O [Maltose]	1.07	1.04	1.27	1.22	1.72	1.68	1.97	1.93	2.37	1.07	1.53	1.53	2.29	3.23	3.88	4.21	5.86	7.01	8.07	8.77	Substrate use, 590 nm absorbance normalized to zero hour, 1 hr [4]: 2.29; Substrate use, 590 nm absorbance normalized to zero hour, 5 hr [4]: 5.22; Substrate use, 590 nm absorbance normalized to zero hour, 7 hr [4]: 6.41; 590 nm absorbance normalized to zero hour (substrate use), 11 hr [2]: 8.43
O=C(O)[C@H](O)[C@@H](O)[C@H](O)[C@H](O)CO[C@H]1O[C@H](CO)[C@H](O)[C@H](O)[C@H]1O [Melibionic Acid]	0.20	0.76	0.58	0.66	0.40	0.51	0.53	0.57	0.60	0.20	0.48	0.47	3.52	3.58	3.59	3.66	3.22	2.89	2.67	1.66	590 nm absorbance normalized to zero hour (substrate use), 0 hr [1]: 1.00; Substrate use, 590 nm absorbance normalized to zero hour, 0 hr [1]: 1.00; Substrate use, 590 nm absorbance normalized to zero hour, 0 hr [4]: 1.00; Substrate use, 590 nm absorbance normalized to zero hour, 1 hr [4]: 3.52; Substrate use, 590 nm absorbance normalized to zero hour, 5 hr [4]: 3.34; Substrate use, 590 nm absorbance normalized to zero hour, 7 hr [4]: 3.05; 590 nm absorbance normalized to zero hour (substrate use), 0 hr [2]: 1.00; 590 nm absorbance normalized to zero hour (substrate use), 11 hr [2]: 2.18
COC(=O)[C@@H](C)O [Methyl D-Lactate]	1.36	1.52	2.08	2.04	1.34	2.16	2.39	2.41	2.99	1.36	2.26	2.14	2.10	2.49	2.89	2.64	2.94	3.20	3.46	3.46	590 nm absorbance normalized to zero hour (substrate use), 5 hr [2]: 2.75; 590 nm absorbance normalized to zero hour (substrate use), 7 hr [2]: 3.10; 590 nm absorbance normalized to zero hour (substrate use), 11 hr [2]: 3.61; 590 nm absorbance normalized to zero hour (substrate use), 1 hr [3]: 2.10; 590 nm absorbance normalized to zero hour (substrate use), 2 hr [3]: 2.49; 590 nm absorbance normalized to zero hour (substrate use), 3 hr [3]: 2.89; 590 nm absorbance normalized to zero hour (substrate use), 4 hr [3]: 2.64; 590 nm absorbance normalized to zero hour (substrate use), 5 hr [3]: 2.75; 590 nm absorbance normalized to zero hour (substrate use), 6 hr [3]: 2.94; 590 nm absorbance normalized to zero hour (substrate use), 7 hr [3]: 3.10; 590 nm absorbance normalized to zero hour (substrate use), 8 hr [3]: 3.20; 590 nm absorbance normalized to zero hour (substrate use), 9 hr [3]: 3.46; 590 nm absorbance normalized to zero hour (substrate use), 10 hr [3]: 3.46; 590 nm absorbance normalized to zero hour (substrate use), 11 hr [3]: 3.61
